Patent US20250189533A1, “BEAD-BASED ASSAY TO SCREEN FOR INHIBITOR PROTEIN-GLYCAN INTERACTIONS IN NEURODEGENERATION” (Rensselaer Polytechnic Institute, priority 2023, published 2025)

Key:
[1] = tested on: tau uptake in H4 neuroglioma cells; test: Cell uptake assay utilizing H4 neuroglioma cells; assay type: cell-based
Description: (§1) Referring to FIG. 3B, in some embodiments, the screening compound 150 comprises 9-hydroxy-2-(2-piperidinylethyl) ellipticinium acetate or 6H-Pyrido [4, 9-hydroxy-5,11-dimethyl-2-[2-(1-piperidinyl)ethyl]-, acetate (A9) 300. […] A9 300 may comprise a chemical formula of C24H28N3O·C2H3O2 and a molecular weight of 434.0 g/mol. Additional analysis of A9 300 was done by performing a cell uptake assay utilizing H4 neuroglioma cells. […] In some embodiments, A9 300 is effective to disrupt tau-heparin interaction when present in a higher concentration than the concentration of tau. In some embodiments, A9 300 is effective when present in about a 100-fold molar excess relative to the tau-heparin complex.

[2] = target: T1, His-tagged tau / biotinylated heparin interaction (Homo sapiens, UniProt P10636); test: Bead-based ALPHA assay screening for inhibitors of tau-heparin interaction; assay type: binding
T1 construct: recombinant full-length tau (2N4R, as 1-441); made in house; host or cells: E. coli BL21-DE3
Description: In some embodiments, the detecting portion 161 is configured to measure a fluorescent emission 164 when the at least one donor bead 110 and the at least one acceptor bead 120 are brought in proximity of one another. In some embodiments, the emitting portion 163 configured to emit a beam of light 162 at a specific wavelength onto the at least one donor bead 110. In some embodiments, the at least one donor bead 110 becomes excited at the specific wavelength, which results in a light emission by the at least one acceptor bead 120. […] In some embodiments, the ability and effectiveness of the screening molecule 150 to inhibit protein-glycan interactions is determined based on the strength of the emission 164, where inhibitors decrease the strength of the emission 164. […] In some embodiments, the user interface outputs information related to the emission 164 detected by the detecting portion 161.
At 214, the results are determined, meaning that whether or not the screening compound disrupts interactions at the protein-glycan interface is determined. In some embodiments, in the case of the screening molecule 150 being determined to disrupt interactions at the protein-glycan interface, the relative strength of the disruption may also be determined. […]

tau = target: T2, tau (Homo sapiens, UniProt P10636); test: Heparin-induced tau aggregation; assay type: biochemical
T2 construct: recombinant full-length tau (2N4R, as 1-441); made in house; host or cells: E. coli BL21-DE3
Description: as §1

[3] = target: T3, tau-HS interaction (heparin) (Homo sapiens, UniProt P10636); test: NMR probing of the tau-A9 interface; assay type: binding
T3 construct: recombinant full-length tau (2N4R, as 1-441); made in house; host or cells: E. coli BL21-DE3
T3 sequence (P10636 1-441 isoform P10636-8): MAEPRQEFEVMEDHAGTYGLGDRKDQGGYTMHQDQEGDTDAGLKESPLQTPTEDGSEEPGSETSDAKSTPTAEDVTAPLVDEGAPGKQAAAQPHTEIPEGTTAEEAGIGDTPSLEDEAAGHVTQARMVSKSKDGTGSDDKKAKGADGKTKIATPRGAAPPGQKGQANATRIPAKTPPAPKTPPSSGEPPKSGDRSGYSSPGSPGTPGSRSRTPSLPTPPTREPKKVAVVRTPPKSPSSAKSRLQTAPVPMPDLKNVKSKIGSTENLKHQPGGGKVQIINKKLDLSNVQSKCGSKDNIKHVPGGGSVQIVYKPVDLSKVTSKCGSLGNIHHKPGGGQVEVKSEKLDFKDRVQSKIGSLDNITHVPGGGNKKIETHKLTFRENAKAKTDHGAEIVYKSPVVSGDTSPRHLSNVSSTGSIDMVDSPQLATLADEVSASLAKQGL

T1 sequence (P10636 1-441 isoform P10636-8): as above
T2 sequence (P10636 1-441 isoform P10636-8): as above

SMILES: CC(=O)[O-].Cc1c2cc[n+](CCN3CCCCC3)cc2c(C)c2c1[nH]c1ccc(O)cc12 [A9, 9-hydroxy-2-(2-piperidinylethyl) ellipticinium acetate]
- inhibition of tau uptake [1]: inhibited tau uptake in a dose-dependent manner
- detected fluorescent signal in screen of NCI diversity Set VI ([2]; 0.1 μM His-tau, 0.1 μM biotinylated heparin, 1 h room temperature, excitation 680 nm, emission 620 nm, lower signal = stronger inhibition): lowest detected fluorescent signal
- protein-glycan inhibition, dose-dependent follow-up, ranking among the six hits ([2]; varying compound concentrations): greatest protein-glycan inhibition
- inhibition of heparin-induced tau aggregation (tau): inhibit heparin-induced tau aggregation in a dose-dependent manner
- mechanism of disruption of tau-HS interaction ([3]; NMR): disrupt the tau-HS interaction by occupying the glycan
- region of compound that binds heparin ([3]; further analysis): aromatic region binds to heparin instead of its aliphatic carbons
